Target: T1, topoisomerase I (Homo sapiens, UniProt P11387)
T1 construct: gene TOP1
T1 sequence (P11387 2-765): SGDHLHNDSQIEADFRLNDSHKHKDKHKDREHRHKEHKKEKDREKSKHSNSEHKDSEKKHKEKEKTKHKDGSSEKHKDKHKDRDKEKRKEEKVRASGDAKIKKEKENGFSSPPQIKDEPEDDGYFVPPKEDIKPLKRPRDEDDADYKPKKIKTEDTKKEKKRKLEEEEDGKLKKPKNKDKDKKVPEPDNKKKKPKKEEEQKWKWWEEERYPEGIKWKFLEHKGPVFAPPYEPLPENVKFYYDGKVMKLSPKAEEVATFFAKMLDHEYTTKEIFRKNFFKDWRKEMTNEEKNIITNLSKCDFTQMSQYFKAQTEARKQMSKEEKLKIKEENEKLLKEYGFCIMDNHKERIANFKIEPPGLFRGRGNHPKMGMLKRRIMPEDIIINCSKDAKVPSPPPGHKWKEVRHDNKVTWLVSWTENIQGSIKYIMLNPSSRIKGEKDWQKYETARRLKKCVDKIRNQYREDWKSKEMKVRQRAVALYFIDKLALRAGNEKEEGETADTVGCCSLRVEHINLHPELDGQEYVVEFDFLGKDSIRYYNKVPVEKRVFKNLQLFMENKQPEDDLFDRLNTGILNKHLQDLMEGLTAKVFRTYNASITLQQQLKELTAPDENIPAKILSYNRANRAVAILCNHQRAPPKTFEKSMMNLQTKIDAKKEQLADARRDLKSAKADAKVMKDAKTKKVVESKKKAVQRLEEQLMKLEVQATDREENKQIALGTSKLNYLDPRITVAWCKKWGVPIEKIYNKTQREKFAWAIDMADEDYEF
Experiment: supercoiled plasmid DNA relaxation gel assay (TopoGEN topo I kit)
Assay type: biochemical

IC50	SMILES
30.9 ± 1.49 µM	COc1ccc(C2C3=C(Nc4[nH]c(=S)[nH]c(=O)c42)c2ccccc2C3=O)cc1 (centres unmarked) [7H]
38.8 ± 2.27 µM	CN(C)c1ccc(C2C3=C(Nc4[nH]c(=S)[nH]c(=O)c42)c2ccccc2C3=O)cc1 (centres unmarked) [9H]

From paper PMC9570267, “A Computational QSAR, Molecular Docking and In Vitro Cytotoxicity Study of Novel Thiouracil-Based Drugs with Anticancer Activity against Human-DNA Topoisomerase II” (International Journal of Molecular Sciences, 2022)
